# Assay results reported in ChEMBL document CHEMBL4513160, “CO-ADD screening of MMV (CH) - Small Polar Library”.
# Key:
# Pseudomonas aeruginosa [1] = experiment: microbe, parasite or virus in culture; conditions: ATCC 27853, 18 h, ASSAY_TEST Inhibition of Bacterial Growth, detection method Absorption (OD600), MEDIA CAMHB, plate type 384well, NBS, CORNING #3640
# Description: Antibacterial activity against Pseudomonas aeruginosa ATCC 27853 (CO-ADD:GN_042); MIC in CAMBH media using NBS plates, by OD(600)
# Pseudomonas aeruginosa [2] = experiment: Antibacterial activity against Pseudomonas aeruginosa PAO397 [PAO1 d(mexAB-oprM) d(mexCD-oprJ) d(mexEF-oprN) d(mexJKL) d(mexXY) d(opmH)] (CO-ADD:GN_211); MIC in CAMBH media using NBS plates, by OD(600); type: functional; conditions: ASSAY_TEST Inhibition of Bacterial Growth, detection method Absorption (OD600), MEDIA CAMHB, plate type 384well, CORNING #3640, time 18 hr
# Acinetobacter baumannii = experiment: microbe, parasite or virus in culture; conditions: ATCC 19606, 18 h, ASSAY_TEST Inhibition of Bacterial Growth, detection method Absorption (OD600), MEDIA CAMHB, plate type 384well, NBS, CORNING #3640
# Description: Antibacterial activity against Acinetobacter baumannii ATCC 19606 (CO-ADD:GN_034); MIC in CAMBH media using NBS plates, by OD600
MIC (Pseudomonas aeruginosa [1]),MIC (Pseudomonas aeruginosa [2]),MIC (Acinetobacter baumannii),Structure (SMILES)
> 300 µM,> 300 µM,> 300 µM,NC(=O)CSc1nnc(-c2cc(Br)ccc2O)[nH]1
> 300 µM,> 300 µM,> 300 µM,NCc1cnn(-c2ccc(Br)cc2)c1
> 300 µM,> 300 µM,> 300 µM,CCC1Oc2c(Cl)cccc2NC1=O (configuration not stated)
> 300 µM,> 300 µM,> 300 µM,c1ccc(Nc2nccs2)nc1
> 300 µM,> 300 µM,> 300 µM,CCOc1ccc(Cl)cc1CCNS(=O)(=O)N(C)C
> 300 µM,> 300 µM,> 300 µM,OCCCN(CCO)Cc1c(Cl)ccc2cccnc12
> 300 µM,> 300 µM,> 300 µM,OCCCNc1ccnc2ccc(Cl)cc12
> 300 µM,> 300 µM,> 300 µM,O=C1c2ccccc2OCC1CN1CCOCC1 (configuration not stated)
> 300 µM,> 300 µM,> 300 µM,CN1CCCC1CCSc1nc(N)c(C#N)cc1C#N (configuration not stated)
> 300 µM,> 300 µM,> 300 µM,CN(C(=O)CN)c1ccc(-c2ccccc2)cc1
> 300 µM,> 300 µM,> 300 µM,CS(=O)(=O)c1ccc(CN)o1
> 300 µM,> 300 µM,> 300 µM,CN(Cc1ccc(O)cc1)C(=O)c1cc(Cl)c[nH]1
> 300 µM,> 300 µM,> 300 µM,NS(=O)(=O)NCC1CCN(c2cccc(Br)c2)C1 (configuration not stated)
> 300 µM,> 300 µM,> 300 µM,C1CCC(C2CCNCC2)OC1 (configuration not stated)
> 300 µM,> 300 µM,> 300 µM,NC(=O)C1CCN(c2ccnc3cc(Br)ccc23)C1 (configuration not stated)
> 300 µM,> 300 µM,> 300 µM,N#Cc1ncn(CC(=O)c2ccc3c(c2)CCO3)n1
> 300 µM,> 300 µM,> 300 µM,Cn1ccc(C(=O)Nc2ccc(Br)cn2)n1
> 300 µM,> 300 µM,> 300 µM,NC1CSCc2c(F)cccc21 (configuration not stated)

MIC (Pseudomonas aeruginosa [1]),MIC (Pseudomonas aeruginosa [2]),MIC (Acinetobacter baumannii),Structure (SMILES)
> 300 µM,> 300 µM,> 300 µM,O=C(c1c(O)cccc1F)N1CCc2cnccc21
> 300 µM,> 300 µM,> 300 µM,COc1c(C(=O)N2CCOCC2)sc2ccc(F)cc12
> 300 µM,> 300 µM,> 300 µM,Cc1cc(Br)cc(C(=O)NCc2nccc(N)n2)c1
> 300 µM,> 300 µM,> 300 µM,CC(C)C(=O)c1cnccc1N
> 300 µM,> 300 µM,> 300 µM,NCCNS(=O)(=O)c1ccc(F)c(C(F)(F)F)c1
60 µM,> 300 µM,> 300 µM,COCCOc1ccc(CNC(=O)c2ccoc2)cn1
> 300 µM,> 300 µM,> 300 µM,CC(O)CN1C(=O)C=CC1=O (configuration not stated)
> 300 µM,> 300 µM,> 300 µM,NC(=O)C1CCN(Cc2ccc(Br)c3cccnc23)C1 (configuration not stated)
> 300 µM,> 300 µM,> 300 µM,Brc1ccc2c(c1)OCCNC2
> 300 µM,> 300 µM,> 300 µM,NCCNS(=O)(=O)c1ccc(-c2ccccc2)cc1
> 300 µM,> 300 µM,> 300 µM,N[C@@H]1CCCc2c(F)cc(F)cc21
> 300 µM,> 300 µM,> 300 µM,CNc1nnc(-c2ccccc2)s1
200 µM,200 µM,> 300 µM,Cn1ncnc1NC(=O)c1ccc(C#N)cc1
> 300 µM,> 300 µM,> 300 µM,O=C(c1ccc(Br)s1)N1CCN(c2ccccn2)CC1
> 300 µM,> 300 µM,> 300 µM,Cc1cc(C(=O)NC2CCC(=O)NC2)cc(Cl)c1Br (configuration not stated)
> 300 µM,> 300 µM,> 300 µM,Cc1cccc(S(=O)(=O)NC2CCNC2)c1Cl (configuration not stated)
> 300 µM,> 300 µM,> 300 µM,NCc1nc(-c2ccc(Cl)cc2)c[nH]1

Structure (SMILES),MIC (Pseudomonas aeruginosa [1]),MIC (Pseudomonas aeruginosa [2]),MIC (Acinetobacter baumannii)
CC(CN)N(C)C(=O)Cc1cccc2ccccc12 (configuration not stated),> 300 µM,,> 300 µM
